According to article PMC4710522, “A Novel Triazolopyridine-Based Spleen Tyrosine Kinase Inhibitor That Arrests Joint Inflammation” (PLoS ONE, 2016):

What was measured:
Experiment in all cases: SelectScreen kinase assay
Type in all cases: biochemical
[1] = target: T1, EphA2_h (Homo sapiens, UniProt P29317); settings: KM ATP, read-out: % control
T1 construct: purchased Life Technologies (Invitrogen) SelectScreen, Z'-LYTE / Adapta
Outline: (§1)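 With compound constant at 3 µM, kinase activity was determined by Z'-Lyte or Adapta at KM ATP or at 10 or 100 µM ATP. Uninhibited DMSO-only wells defined 100% control.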

[2] = target: T2, CK1-gamma2_h (Homo sapiens, UniProt P78368); settings: KM ATP, read-out: % control
T2 construct: purchased Life Technologies (Invitrogen) SelectScreen, Z'-LYTE / Adapta
T2 sequence (P78368 whole entry): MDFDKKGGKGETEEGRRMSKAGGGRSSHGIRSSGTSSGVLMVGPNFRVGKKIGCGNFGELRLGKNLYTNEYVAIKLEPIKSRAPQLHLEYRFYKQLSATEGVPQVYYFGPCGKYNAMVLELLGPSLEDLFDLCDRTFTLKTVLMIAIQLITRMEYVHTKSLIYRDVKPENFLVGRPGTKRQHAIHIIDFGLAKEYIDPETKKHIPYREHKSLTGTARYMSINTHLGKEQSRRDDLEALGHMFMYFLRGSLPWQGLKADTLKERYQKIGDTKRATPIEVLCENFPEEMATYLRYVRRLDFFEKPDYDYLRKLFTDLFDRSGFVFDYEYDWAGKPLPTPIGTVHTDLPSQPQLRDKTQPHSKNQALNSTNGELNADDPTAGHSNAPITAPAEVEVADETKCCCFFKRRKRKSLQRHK
Outline: as §1

[3] = target: T3, c-RAF_h (Homo sapiens, UniProt P04049); settings: 100 µM ATP, read-out: % control
T3 construct: purchased Life Technologies (Invitrogen) SelectScreen, Z'-LYTE / Adapta
Outline: as §1

[4] = target: T4, FAK_h (Homo sapiens, UniProt Q05397); settings: KM ATP, read-out: % control
T4 construct: purchased Life Technologies (Invitrogen) SelectScreen, Z'-LYTE / Adapta
Outline: as §1

[5] = target: T5, EphA5_h (Homo sapiens, UniProt P54756); settings: KM ATP, read-out: % control
T5 construct: purchased Life Technologies (Invitrogen) SelectScreen, Z'-LYTE / Adapta
Outline: as §1

[6] = target: T6, Lck_h (Homo sapiens, UniProt P06239); settings: KM ATP, read-out: % control
T6 construct: purchased Life Technologies (Invitrogen) SelectScreen, Z'-LYTE / Adapta
Outline: as §1

[7] = target: T7, SRMS_h (Homo sapiens, UniProt Q9H3Y6); settings: KM ATP, read-out: % control
T7 construct: purchased Life Technologies (Invitrogen) SelectScreen, Z'-LYTE / Adapta
Outline: as §1

[8] = target: T8, MATK_h (Homo sapiens, UniProt P42679); settings: KM ATP, read-out: % control
T8 construct: purchased Life Technologies (Invitrogen) SelectScreen, Z'-LYTE / Adapta
Outline: as §1

[9] = target: T9, Mer_h (Homo sapiens, UniProt Q12866); settings: KM ATP, read-out: % control
T9 construct: purchased Life Technologies (Invitrogen) SelectScreen, Z'-LYTE / Adapta
Outline: as §1

[10] = target: T10, CK1-epsilon_h (Homo sapiens, UniProt P49674); settings: KM ATP, read-out: % control
T10 construct: purchased Life Technologies (Invitrogen) SelectScreen, Z'-LYTE / Adapta
T10 sequence (P49674 whole entry): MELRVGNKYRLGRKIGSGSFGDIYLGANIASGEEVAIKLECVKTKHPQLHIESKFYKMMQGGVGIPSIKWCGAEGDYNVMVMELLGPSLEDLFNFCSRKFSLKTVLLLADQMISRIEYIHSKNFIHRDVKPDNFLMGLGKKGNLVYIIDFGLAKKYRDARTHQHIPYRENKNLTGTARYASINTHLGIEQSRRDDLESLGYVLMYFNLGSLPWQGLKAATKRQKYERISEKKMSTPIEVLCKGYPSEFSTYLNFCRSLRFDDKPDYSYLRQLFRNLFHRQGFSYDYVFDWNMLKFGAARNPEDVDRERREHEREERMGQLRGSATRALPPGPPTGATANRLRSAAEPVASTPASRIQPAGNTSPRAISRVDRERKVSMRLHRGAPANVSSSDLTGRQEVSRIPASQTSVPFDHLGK
Outline: as §1

[11] = target: T11, PRAK_h (Homo sapiens, UniProt Q8IW41); settings: KM ATP, read-out: % control
T11 construct: purchased Life Technologies (Invitrogen) SelectScreen, Z'-LYTE / Adapta
Outline: as §1

[12] = target: T12, ALK4_h (Homo sapiens, UniProt P36896); settings: KM ATP, read-out: % control
T12 construct: purchased Life Technologies (Invitrogen) SelectScreen, Z'-LYTE / Adapta
Outline: as §1

[13] = target: T13, Khs_1 (Homo sapiens, UniProt Q9Y4K4); settings: KM ATP, read-out: % control
T13 construct: purchased Life Technologies (Invitrogen) SelectScreen, Z'-LYTE / Adapta
Outline: as §1

[14] = target: T14, EGFR_T790M_L858R_h (Homo sapiens, UniProt P00533, L858R/T790M); settings: KM ATP, read-out: % control
T14 construct: purchased Life Technologies (Invitrogen) SelectScreen, Z'-LYTE / Adapta
T14 sequence (P00533 25-1210 T790M/L858R): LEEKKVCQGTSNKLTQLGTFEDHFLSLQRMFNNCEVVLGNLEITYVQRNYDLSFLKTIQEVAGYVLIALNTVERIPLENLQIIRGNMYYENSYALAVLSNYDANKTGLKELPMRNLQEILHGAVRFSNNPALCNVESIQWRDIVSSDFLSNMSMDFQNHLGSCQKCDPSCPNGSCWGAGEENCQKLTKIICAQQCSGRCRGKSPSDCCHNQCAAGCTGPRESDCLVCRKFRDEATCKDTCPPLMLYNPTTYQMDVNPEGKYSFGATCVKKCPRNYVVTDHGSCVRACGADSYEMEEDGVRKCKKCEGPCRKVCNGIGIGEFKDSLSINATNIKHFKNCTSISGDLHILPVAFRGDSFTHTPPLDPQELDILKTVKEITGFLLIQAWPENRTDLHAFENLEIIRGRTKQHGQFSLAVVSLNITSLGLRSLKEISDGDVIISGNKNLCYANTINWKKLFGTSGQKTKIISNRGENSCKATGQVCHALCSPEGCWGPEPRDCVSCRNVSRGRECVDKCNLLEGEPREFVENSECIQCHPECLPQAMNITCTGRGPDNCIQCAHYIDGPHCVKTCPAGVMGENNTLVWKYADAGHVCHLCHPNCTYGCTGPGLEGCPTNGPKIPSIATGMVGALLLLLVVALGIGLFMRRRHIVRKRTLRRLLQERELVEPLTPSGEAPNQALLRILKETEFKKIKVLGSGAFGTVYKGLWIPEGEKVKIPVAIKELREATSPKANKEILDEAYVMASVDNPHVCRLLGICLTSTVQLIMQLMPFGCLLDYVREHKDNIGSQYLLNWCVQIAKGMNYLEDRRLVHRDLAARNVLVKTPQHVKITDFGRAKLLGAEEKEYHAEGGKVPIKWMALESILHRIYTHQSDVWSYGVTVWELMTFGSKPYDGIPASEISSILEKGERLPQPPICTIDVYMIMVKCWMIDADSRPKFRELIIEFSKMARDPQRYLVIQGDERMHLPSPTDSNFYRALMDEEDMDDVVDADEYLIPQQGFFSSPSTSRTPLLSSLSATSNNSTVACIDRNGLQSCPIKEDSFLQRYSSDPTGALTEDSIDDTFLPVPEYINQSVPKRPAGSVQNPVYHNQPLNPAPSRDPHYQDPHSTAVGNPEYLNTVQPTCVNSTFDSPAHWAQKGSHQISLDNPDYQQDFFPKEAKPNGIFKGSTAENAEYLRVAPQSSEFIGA
Outline: as §1

[15] = target: T15, MSSK1_h (Homo sapiens, UniProt Q9UPE1); settings: KM ATP, read-out: % control
T15 construct: purchased Life Technologies (Invitrogen) SelectScreen, Z'-LYTE / Adapta
Outline: as §1

[16] = target: T16, GSK3-beta_h (Homo sapiens, UniProt P49841); settings: KM ATP, read-out: % control
T16 construct: purchased Life Technologies (Invitrogen) SelectScreen, Z'-LYTE / Adapta
Outline: as §1

[17] = target: LYN-A_h (Homo sapiens, UniProt P07948)
Chain of LYN-A_h (P07948 whole entry): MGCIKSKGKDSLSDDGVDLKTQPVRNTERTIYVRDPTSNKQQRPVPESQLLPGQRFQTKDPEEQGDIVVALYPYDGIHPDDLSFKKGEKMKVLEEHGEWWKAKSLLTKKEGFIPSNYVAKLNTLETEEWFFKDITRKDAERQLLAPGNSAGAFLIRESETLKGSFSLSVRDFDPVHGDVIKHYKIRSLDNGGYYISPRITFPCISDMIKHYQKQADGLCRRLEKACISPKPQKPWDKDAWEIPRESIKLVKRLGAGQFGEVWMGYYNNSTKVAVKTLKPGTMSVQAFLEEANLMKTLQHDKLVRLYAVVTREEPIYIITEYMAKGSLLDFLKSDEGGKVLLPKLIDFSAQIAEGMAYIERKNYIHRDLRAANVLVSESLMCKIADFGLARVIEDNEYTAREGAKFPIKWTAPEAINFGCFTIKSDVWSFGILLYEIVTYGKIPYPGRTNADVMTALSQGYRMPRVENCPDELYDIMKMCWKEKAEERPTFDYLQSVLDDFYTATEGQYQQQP
Outline: as §1

[18] = target: T17, PAK2_h (Homo sapiens, UniProt Q13177); settings: KM ATP, read-out: % control
T17 construct: purchased Life Technologies (Invitrogen) SelectScreen, Z'-LYTE / Adapta
Outline: as §1

[19] = target: T18, ALK_h (Homo sapiens, UniProt Q9UM73); settings: KM ATP, read-out: % control
T18 construct: purchased Life Technologies (Invitrogen) SelectScreen, Z'-LYTE / Adapta
Outline: as §1

[20] = target: T19, Plk1_h (Homo sapiens, UniProt P53350); settings: KM ATP, read-out: % control
T19 construct: purchased Life Technologies (Invitrogen) SelectScreen, Z'-LYTE / Adapta
Outline: as §1

[21] = target: T20, EphA1_h (Homo sapiens, UniProt P21709); settings: KM ATP, read-out: % control
T20 construct: purchased Life Technologies (Invitrogen) SelectScreen, Z'-LYTE / Adapta
Outline: as §1

[22] = target: PDGFR-alpha_h (Homo sapiens, UniProt P16234)
Chain of PDGFR-alpha_h (P16234 24-1089): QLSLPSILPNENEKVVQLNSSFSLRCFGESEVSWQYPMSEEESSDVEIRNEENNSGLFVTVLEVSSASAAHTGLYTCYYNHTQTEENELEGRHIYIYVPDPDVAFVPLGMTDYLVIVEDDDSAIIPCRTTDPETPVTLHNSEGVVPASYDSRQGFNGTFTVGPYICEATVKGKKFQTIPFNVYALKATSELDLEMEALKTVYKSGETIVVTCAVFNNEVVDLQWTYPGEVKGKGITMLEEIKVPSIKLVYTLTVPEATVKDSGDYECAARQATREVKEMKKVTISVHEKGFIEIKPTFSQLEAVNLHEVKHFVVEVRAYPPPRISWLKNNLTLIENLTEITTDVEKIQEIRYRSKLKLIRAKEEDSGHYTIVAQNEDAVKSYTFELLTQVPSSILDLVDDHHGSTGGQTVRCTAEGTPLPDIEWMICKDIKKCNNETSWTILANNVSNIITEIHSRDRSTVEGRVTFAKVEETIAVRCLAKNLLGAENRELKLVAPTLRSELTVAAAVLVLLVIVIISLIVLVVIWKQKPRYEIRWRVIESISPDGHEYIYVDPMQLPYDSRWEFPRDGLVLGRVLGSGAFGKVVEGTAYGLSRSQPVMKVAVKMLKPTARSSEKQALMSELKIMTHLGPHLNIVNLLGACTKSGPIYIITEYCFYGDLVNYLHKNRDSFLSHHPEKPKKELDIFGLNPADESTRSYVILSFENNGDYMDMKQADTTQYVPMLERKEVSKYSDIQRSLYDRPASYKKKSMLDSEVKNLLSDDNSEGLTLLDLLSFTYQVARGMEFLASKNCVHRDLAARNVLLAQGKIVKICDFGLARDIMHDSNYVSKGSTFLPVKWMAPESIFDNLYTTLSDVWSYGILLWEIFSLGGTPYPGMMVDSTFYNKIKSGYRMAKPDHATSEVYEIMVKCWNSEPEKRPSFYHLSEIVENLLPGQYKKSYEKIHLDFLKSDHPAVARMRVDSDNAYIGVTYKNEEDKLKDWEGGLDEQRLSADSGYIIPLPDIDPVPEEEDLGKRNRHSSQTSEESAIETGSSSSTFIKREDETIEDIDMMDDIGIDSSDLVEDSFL
Outline: as §1

[23] = target: T21, PTK2B_h (Homo sapiens, UniProt Q14289); settings: KM ATP, read-out: % control
T21 construct: purchased Life Technologies (Invitrogen) SelectScreen, Z'-LYTE / Adapta
T21 sequence (Q14289 whole entry): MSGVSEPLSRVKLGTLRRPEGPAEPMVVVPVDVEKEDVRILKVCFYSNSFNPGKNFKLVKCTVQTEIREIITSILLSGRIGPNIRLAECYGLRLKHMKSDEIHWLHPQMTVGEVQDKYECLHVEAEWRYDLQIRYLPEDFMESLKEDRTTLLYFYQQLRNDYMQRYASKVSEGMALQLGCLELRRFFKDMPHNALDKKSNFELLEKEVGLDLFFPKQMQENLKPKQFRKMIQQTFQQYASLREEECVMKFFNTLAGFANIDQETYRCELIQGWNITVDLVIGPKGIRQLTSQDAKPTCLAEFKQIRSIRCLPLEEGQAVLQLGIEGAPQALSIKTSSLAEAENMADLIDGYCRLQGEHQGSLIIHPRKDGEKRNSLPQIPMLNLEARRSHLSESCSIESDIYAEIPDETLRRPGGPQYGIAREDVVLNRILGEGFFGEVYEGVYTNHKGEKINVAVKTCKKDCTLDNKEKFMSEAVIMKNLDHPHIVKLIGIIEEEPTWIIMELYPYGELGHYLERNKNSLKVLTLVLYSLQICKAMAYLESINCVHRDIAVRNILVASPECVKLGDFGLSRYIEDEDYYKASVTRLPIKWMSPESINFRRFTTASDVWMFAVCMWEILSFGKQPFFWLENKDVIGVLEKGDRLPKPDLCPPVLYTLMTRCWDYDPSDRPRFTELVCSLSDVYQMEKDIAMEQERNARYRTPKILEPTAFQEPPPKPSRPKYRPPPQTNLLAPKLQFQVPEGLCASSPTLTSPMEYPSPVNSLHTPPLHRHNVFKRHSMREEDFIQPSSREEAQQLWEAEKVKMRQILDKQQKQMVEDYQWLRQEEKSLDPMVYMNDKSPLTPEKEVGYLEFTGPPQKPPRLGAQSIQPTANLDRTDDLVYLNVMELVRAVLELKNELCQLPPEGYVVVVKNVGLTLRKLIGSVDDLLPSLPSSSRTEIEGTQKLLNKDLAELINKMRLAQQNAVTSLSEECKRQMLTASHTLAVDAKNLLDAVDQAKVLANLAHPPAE
Outline: as §1

[24] = target: T22, Fyn_h (Homo sapiens, UniProt P06241); settings: KM ATP, read-out: % control
T22 construct: purchased Life Technologies (Invitrogen) SelectScreen, Z'-LYTE / Adapta
Outline: as §1

[25] = target: T23, IR_h (Homo sapiens, UniProt P06213); settings: KM ATP, read-out: % control
T23 construct: purchased Life Technologies (Invitrogen) SelectScreen, Z'-LYTE / Adapta
Outline: as §1

[26] = target: T24, Aurora-C_h (Homo sapiens, UniProt Q9UQB9); settings: KM ATP, read-out: % control
T24 construct: purchased Life Technologies (Invitrogen) SelectScreen, Z'-LYTE / Adapta
Outline: as §1

[27] = target: T25, EphA4_h (Homo sapiens, UniProt P54764); settings: KM ATP, read-out: % control
T25 construct: purchased Life Technologies (Invitrogen) SelectScreen, Z'-LYTE / Adapta
Outline: as §1

[28] = target: T26, DAPK1_h (Homo sapiens, UniProt P53355); settings: KM ATP, read-out: % control
T26 construct: purchased Life Technologies (Invitrogen) SelectScreen, Z'-LYTE / Adapta
Outline: as §1

[29] = target: T27, PKD2_h (Homo sapiens, UniProt Q9BZL6); settings: KM ATP, read-out: % control
T27 construct: purchased Life Technologies (Invitrogen) SelectScreen, Z'-LYTE / Adapta
Outline: as §1

[30] = target: T28, PRKG1_h (Homo sapiens, UniProt Q13976); settings: KM ATP, read-out: % control
T28 construct: purchased Life Technologies (Invitrogen) SelectScreen, Z'-LYTE / Adapta
Outline: as §1

[31] = target: T29, GRK7_h (Homo sapiens, UniProt Q8WTQ7); settings: KM ATP, read-out: % control
T29 construct: purchased Life Technologies (Invitrogen) SelectScreen, Z'-LYTE / Adapta
Outline: as §1

[32] = target: T30, Flt3_D835Y_h (Homo sapiens, UniProt P36888, D835Y); settings: KM ATP, read-out: % control
T30 construct: purchased Life Technologies (Invitrogen) SelectScreen, Z'-LYTE / Adapta
Outline: as §1

[33] = target: T31, CK1-gamma1_h (Homo sapiens, UniProt Q9HCP0); settings: KM ATP, read-out: % control
T31 construct: purchased Life Technologies (Invitrogen) SelectScreen, Z'-LYTE / Adapta
T31 sequence (Q9HCP0 whole entry): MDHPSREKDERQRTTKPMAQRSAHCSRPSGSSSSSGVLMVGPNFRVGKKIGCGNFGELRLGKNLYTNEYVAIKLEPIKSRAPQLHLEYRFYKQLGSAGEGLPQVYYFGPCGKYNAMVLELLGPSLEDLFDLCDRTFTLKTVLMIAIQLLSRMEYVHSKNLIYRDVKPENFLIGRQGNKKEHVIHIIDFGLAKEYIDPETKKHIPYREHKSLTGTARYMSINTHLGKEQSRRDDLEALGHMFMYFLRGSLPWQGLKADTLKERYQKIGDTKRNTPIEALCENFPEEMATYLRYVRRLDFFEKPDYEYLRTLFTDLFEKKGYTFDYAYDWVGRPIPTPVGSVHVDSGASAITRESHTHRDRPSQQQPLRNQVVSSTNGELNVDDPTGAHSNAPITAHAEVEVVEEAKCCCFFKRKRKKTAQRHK
Outline: as §1

[34] = target: T32, PDGFR-alpha_D842V_h (Homo sapiens, UniProt P16234, D842V); settings: KM ATP, read-out: % control
T32 construct: purchased Life Technologies (Invitrogen) SelectScreen, Z'-LYTE / Adapta
T32 sequence (P16234 24-1089 D842V): as the sequence (P16234 24-1089) above, with D819V counted along it
Outline: as §1

[35] = 3 µM, KM ATP, read-out: % control
[36] = 10-point dose-response, commercial vendor

c1cc(CC2CCOCC2)n2nc(Nc3ccc4c(NC5CCOCC5)n[nH]c4c3)nc2c1 [CC-509, [3-(2H-3,4,5,6-tetrahydropyran-4-ylamino)(1H-indazol-6-yl)][5-(2H-3,4,5,6-tetrahydropyran-4-ylmethyl)(2H-1,2,4-triazolo[1,5-a]pyridin-2-yl)]amine]
remaining activity at 3 µM [1]: 82% | remaining activity at 3 µM [2]: 68% | remaining activity at 3 µM [3]: 70% | remaining activity at 3 µM [4]: 43% | remaining activity at 3 µM [5]: 89% | remaining activity at 3 µM [6]: 39% | remaining activity at 3 µM [7]: 90% | remaining activity at 3 µM [8]: 102% | remaining activity at 3 µM [9]: 90% | remaining activity at 3 µM [10]: 89% | remaining activity at 3 µM [11]: 91% | remaining activity at 3 µM [12]: 107% | remaining activity at 3 µM [13]: 81% | remaining activity at 3 µM [14]: 52% | remaining activity at 3 µM [15]: 98% | remaining activity at 3 µM [16]: 88% | remaining activity at 3 µM [17, 35]: 54% | IC50 [17, 36]: 3580 nM | remaining activity at 3 µM [18]: 85% | remaining activity at 3 µM [19]: 45% | remaining activity at 3 µM [20]: 88% | remaining activity at 3 µM [21]: 21% | remaining activity at 3 µM [22, 35]: 4% | IC50 [22, 36]: 204 nM | remaining activity at 3 µM [23]: 50% | remaining activity at 3 µM [24]: 74% | remaining activity at 3 µM [25]: 91% | remaining activity at 3 µM [26]: 18% | remaining activity at 3 µM [27]: 76% | remaining activity at 3 µM [28]: 104% | remaining activity at 3 µM [29]: 52% | remaining activity at 3 µM [30]: 96% | remaining activity at 3 µM [31]: 94% | remaining activity at 3 µM [32]: -1% | remaining activity at 3 µM [33]: 54% | remaining activity at 3 µM [34]: 9%
